Reference: patent publication US9187448B2, “Flavonoid compounds” (CARDERO THERAPEUTICS, INC., priority 2011, dated 2015)

How the values were obtained:
[1] = tested on: mitochondrial complex proteins (MCP) I and V; experiment: Western blot of mitochondrial complex proteins (MCP) in coronary artery endothelial cells; type: cell-based, human (HCAEC) or bovine (BCAEC); conditions: HCAEC or BCAEC, Western blot band intensity; results shown in FIG. 2
Protocol: The effect of (−)-epicatechin analogs on mitochondrial complex proteins (MCP) I and V was studied human (HCAEC) or bovine (BCAEC) Coronary Artery Endothelial cells. Western blots were performed as follows: Approximately 50 mg of cells were homogenized with a polytron in 500 μl lysis buffer (1% triton X-100, 20 mM Tris, 140 mM NaCl, 2 mM EDTA, and 0.1% SDS) with protease and phosphatase inhibitor cocktails (P2714 and P2850, Sigma-Aldrich, St. Louis, Mo.) supplemented with 0.15 mM PMSF, 5 mM Na3VO4 and 3 mM NaF. Homogenates were passed through an insulin syringe five times, sonicated for 30 min at 4° C. and centrifuged (12,000 g) for 10 min. The total protein content was measured in the supernatant using the Bradford method. A total of 40 μg of protein was loaded onto a 4%-15% precast TGX polyacrylamide gel (Bio-rad), electrotransferred (12 V, 50 minutes), incubated for 1 h in blocking solution (5% nonfat dry milk in TBS plus 0.1% Tween 20 [TBS-T]). Blots were probed with a cocktail of monoclonal antibodies to electron transport chain proteins (OXPHOS) (20 KDa subunit of complex I, 26 KDa subunit of complex IV, subunit core 2 of complex III, 30 Kda complex II and ATP synthase 54 Kda complex V). […] The band intensities were digitally quantified using ImageJ software (http://www.nih.gov).

[2] = rat; cited from earlier work
[3] = humans, ingested in chocolate; cited from earlier work
MRP2 efflux transporter = target: T1, MRP2 efflux transporter (Homo sapiens, UniProt Q92887); conditions: human intestinal Caco-2 cells; cited from earlier work
T1 construct: In a study of enterocyte absorption using human intestinal Caco-2 cells; endogenous in cells; host or cells: Caco-2
T1 sequence (Q92887 whole entry): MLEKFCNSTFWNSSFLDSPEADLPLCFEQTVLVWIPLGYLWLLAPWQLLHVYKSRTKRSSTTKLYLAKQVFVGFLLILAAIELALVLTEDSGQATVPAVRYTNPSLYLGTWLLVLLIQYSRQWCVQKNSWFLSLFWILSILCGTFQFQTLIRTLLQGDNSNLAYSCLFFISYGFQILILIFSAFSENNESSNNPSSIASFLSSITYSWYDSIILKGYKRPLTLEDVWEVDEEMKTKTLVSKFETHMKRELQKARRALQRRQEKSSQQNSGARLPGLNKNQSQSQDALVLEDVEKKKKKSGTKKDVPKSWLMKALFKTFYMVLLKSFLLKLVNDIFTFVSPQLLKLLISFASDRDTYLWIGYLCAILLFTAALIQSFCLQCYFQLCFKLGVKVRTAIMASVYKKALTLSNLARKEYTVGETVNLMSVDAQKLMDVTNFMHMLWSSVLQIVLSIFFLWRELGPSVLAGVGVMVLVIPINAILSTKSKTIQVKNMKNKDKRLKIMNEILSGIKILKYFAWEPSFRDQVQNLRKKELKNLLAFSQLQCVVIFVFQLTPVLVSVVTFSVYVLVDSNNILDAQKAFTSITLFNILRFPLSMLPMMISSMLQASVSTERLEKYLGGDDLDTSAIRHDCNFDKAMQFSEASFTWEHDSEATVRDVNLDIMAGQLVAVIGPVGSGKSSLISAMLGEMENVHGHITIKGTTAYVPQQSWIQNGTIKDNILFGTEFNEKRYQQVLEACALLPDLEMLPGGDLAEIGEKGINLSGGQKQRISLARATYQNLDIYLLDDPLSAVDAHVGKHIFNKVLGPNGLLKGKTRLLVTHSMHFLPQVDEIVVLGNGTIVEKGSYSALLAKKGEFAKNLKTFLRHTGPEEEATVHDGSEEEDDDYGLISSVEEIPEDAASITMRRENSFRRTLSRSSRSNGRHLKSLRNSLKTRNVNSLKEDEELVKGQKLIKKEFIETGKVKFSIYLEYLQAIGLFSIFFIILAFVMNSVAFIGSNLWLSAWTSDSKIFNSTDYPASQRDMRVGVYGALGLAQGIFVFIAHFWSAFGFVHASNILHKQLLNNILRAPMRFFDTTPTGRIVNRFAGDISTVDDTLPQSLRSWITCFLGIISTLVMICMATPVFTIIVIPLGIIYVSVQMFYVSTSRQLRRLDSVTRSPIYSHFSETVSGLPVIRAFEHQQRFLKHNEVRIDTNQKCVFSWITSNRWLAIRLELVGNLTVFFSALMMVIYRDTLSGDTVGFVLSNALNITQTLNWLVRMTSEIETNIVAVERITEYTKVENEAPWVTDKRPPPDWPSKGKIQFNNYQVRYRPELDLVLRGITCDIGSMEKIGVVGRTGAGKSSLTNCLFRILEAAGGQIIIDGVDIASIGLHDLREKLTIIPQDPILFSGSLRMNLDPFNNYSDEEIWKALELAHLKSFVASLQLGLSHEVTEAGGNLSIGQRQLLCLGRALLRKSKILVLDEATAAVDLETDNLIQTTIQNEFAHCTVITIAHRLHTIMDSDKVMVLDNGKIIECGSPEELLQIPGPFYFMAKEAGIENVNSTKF

## COc1cc(OC)c2c(c1)O[C@H](c1ccc(O)c(O)c1)[C@H](O)C2 [5,7-dimethyl substituted (−)-epicatechin]
[1]
  effect on MCP (activity/potency) relative to (−)-epicatechin: less potent than the unsubstituted parent

## Oc1cc(O)c2c(c1)O[C@H](c1ccc(O)c(O)c1)[C@@H](O)C2 [(+)-catechin]
[2]
  effect on absorption of (−)-epicatechin: inhibited

## Oc1cc(O)c2c(c1)O[C@H](c1ccc(O)c(O)c1)[C@H](O)C2 [(−)-epicatechin, (2R,3R)-2-(3,4-dihydroxyphenyl)chroman-3,5,7-triol]
[3]
  fraction absorbed: approximately 30%
MRP2 efflux transporter
  efflux transporter substrate status: substrate of the MRP2 efflux transporter

## CN(C)C(=O)CCSC(SCCC(=O)O)c1cccc(/C=C/c2ccc3ccc(Cl)cc3n2)c1 (centres unmarked) [MK-571]
MRP2 efflux transporter
  effect of MRP2 inhibition on absorption of (−)-epicatechin: increased absorption of (−)-epicatechin somewhat
